≈ marks a conversion by molar mass, not a printed value. Where “and” joins values, the source holds several entries; their conditions need not be identical. Equal values may be shown once.
Key:
MCF-7 cells = assay: MTS cytotoxicity assay of [(WR)8WKβA]-Dox, MCF-7; assay type: cell-based; conditions: 5 μM
Protocol: Cytotoxic activity of the synthesized conjugate and noncovalent mixtures of cyclic [WR]9+Dox was determined in SK-OV-3, MDA-MB-231, MCF-7, MES-SA/MX2, and H9C2 cells. […] An appropriate growth medium was used for each cell line (for SK-OV-3: McCoy's […] with L-glutamine containing fetal bovine serum (FBS) (10%) and penicillin or streptomycin (1%); for MDA-MB-231 and MCF-7 cells: DMEM/F12 (1:1) (1×) with L-Glutamine and 15 mM HEPES containing FBS (10%) and penicillin or streptomycin (1%), and for MES-SA/MX2 and H9C2 cells: Minimum Essential Medium Eagle with Earle's salts and sodium bicarbonate, without L-glutamine containing FBS (10%), and penicillin or streptomycin (1%)). The cells were seeded in a complete growth medium 24 h prior to the experiment. […] The incubation was continued for 3 h.

MES-SA/MX2 cells = assay: LC50 by CCK-8 assay, Dox-resistant MES-SA/MX2; assay type: cell-based; conditions: FIG. 10: after 72 h
Protocol: (§1) Dox-resistant Cell Lines. Acquired resistance to Dox was induced in wild-type triple-negative breast cancer cell line MDA-MB-231 (MDA-231WT) as described before (Aliabadi, H. M.; et al. J. Control. Release 172:219-228, 2013, which is incorporated herein by reference). Briefly, MDA-231WT cells were exposed to Dox at an initial concentration of 0.05 μg/mL for one week or three consecutive expansions (whichever came later). […] Resistance induction was confirmed via calculation of LC50 following a sigmoidal effect model explained elsewhere (Bousoik, E.; et al. Front. Oncol. 9:1070, 2019, which is incorporated herein by reference) and determination of P-glycoprotein (P-gp) expression.
The cytotoxicity of the peptide-Dox conjugate in resistant triple-negative breast cancer and uterine sarcoma cell lines (MDA-231R, MDA-231WT, and MES-SA/MX2) was evaluated by a Cell Counting 8 (CCK8) KIT. The peptide-Dox conjugate was added to the cells in triplicate with different concentrations (0-40 μM). […] After this incubation period, 10 μL of CCK8 reagent was added to each well, and plates were incubated at the same conditions for 2 h. The absorbance of each well was determined at 450 nm using the SpectraMAX M5 microplate reader. […]
Efficiency in Dox-Resistant Cells. […] The cell viability was determined after this incubation period using the CCK-8 assay, as explained above. […]

CCRF-CEM cells = assay: Cytotoxicity, MTS cell viability assay, CCRF-CEM; conditions: 5 μM
Protocol: (§2) In Vitro Cytotoxicity Assay of Peptide-Drug Conjugates. […] In brief, CCRF-CEM cells were seeded at 50,000 cells in 0.1 mL per well in 98-well plates. In the case of other cell lines, the cells were seeded at 5,000 cells (0.1 mL per well in 96-well plates). […] Dox (5 μM) was used as a positive control, while water and cell culture medium were used as negative controls. The compounds were dissolved in water; water was used as a negative control to normalize the data. After the incubation period, MTS reagent (20 μL) was added to each well. The incubation was continued for 2 h. Cell viability was then determined by determination of the fluorescence intensity at 490 nm using a SpectraMax M2 microplate spectrophotometer. The percentage of cell viability was then calculated using the following equation: [(OD value of cells treated with the compound)−(OD value of culture medium)]/[(OD value of control cells)−(OD value of culture medium)]×100% (FIGS. 6-9).

MDA-231R cells = assay: LC50 by CCK-8 assay, Dox-resistant MDA-231R; assay type: cell-based
Protocol: as §1
The cytotoxicity of the peptide-Dox conjugate in resistant triple-negative breast cancer and uterine sarcoma cell lines (MDA-231R, MDA-231WT, and MES-SA/MX2) was evaluated by a Cell Counting 8 (CCK8) KIT. The peptide-Dox conjugate was added to the cells in triplicate with different concentrations (0-40 μM). Cells were incubated at 37° C. and 5% CO2 for 24 h. After this incubation period, 10 μL of CCK8 reagent was added to each well, and plates were incubated at the same conditions for 2 h. The absorbance of each well was determined at 450 nm using the SpectraMAX M5 microplate reader. After subtracting the signal from blank wells that contain medium without cells in the plate with CCK-8 solution added, the results were normalized to cells treated with normal saline (considered as 100%)
Efficiency in Dox-Resistant Cells. In order to compare the cytotoxic effect of free and peptide-conjugated Dox in Dox-resistant cells, MDA-231WT (as a Dox-sensitive cell line as control) and MDA-231R and MES-SA/MX2 cells as Dox-resistant cells were exposed to a wide range of Dox (or Dox-equivalent for the peptide-conjugated drug) concentrations (0.05-40 μM). Cells were seeded in 96-well plates with approximately 50% confluency and were incubated for 24 h in 37° C. and 5% CO2. […] The cell viability was determined after this incubation period using the CCK-8 assay, as explained above. […]

[1] = test system: gastric adenocarcinoma cells (AGS); assay: Cytotoxicity, MTS cell viability assay, AGS; conditions: 5 μM
Protocol: as §2

SK-OV-3 cells = assay: Cytotoxicity, MTS cell viability assay, SK-OV-3 (Example 1)
Protocol: as §2

MDA-MB-231 cells = conditions: naïve MDA231 cells, previous study (Aliabadi et al, 2013); cited from earlier work
H9C2 cells = assay: Confocal microscopy uptake in H9C2 (Example 2); assay type: cell-based, rat; conditions: 5 μM, 24 h
Protocol: Confocal Microscopy. MDA-MB-231, SK-OV-3, MES-SA/MX2, and H9C2 cells (7×10^4 cells/well) were seeded with a medium on a coverslip 24 h prior to the experiment in six well plates. After 24 h, the medium was changed with opti-MEM. The cells were treated with Dox and peptide-Dox conjugate (5 μM) in opti-MEM for 24 h. After 24 h incubation, the media were removed, and cells were washed three times with PBS in each well. Then, the cells were fixed with 3.7% formaldehyde for 10 min, followed by washing three times with PBS (pH 7.6) for 5 min. DAPI (40 μL) for staining the nuclei was placed on a microscope slide, and it was covered with the coverslip with the cell-attached side facing down. The slides were left standing horizontally in a dark place with airflow to allow faster drying. The cells were photographed using Nikon Instruments A1 Confocal Laser Microscope Series and NIS-Elements software (AR 4.30.02, 64 bit). The scan mode was selected as Galvano. The magnification and resolution were set at 40× and 1024, respectively.

COc1cccc2c1C(=O)c1c(O)c3c(c(O)c1C2=O)C[C@@](O)(C(=O)CO)C[C@@H]3O[C@H]1C[C@H](N)[C@H](O)[C@H](C)O1 [Dox, doxorubicin, reference compound]
reduction of cell proliferation (MCF-7 cells; 24 h): 21%
reduction of cell proliferation (MCF-7 cells; 72 h): 57%
CC50 (MES-SA/MX2 cells): 41 µM
Cell Viability (%) after 24 h (CCRF-CEM cells): 48 ± 2%
Cell Viability (%) after 72 h (CCRF-CEM cells): 15 ± 3%
reduction of cell survival/viability (CCRF-CEM cells; 24 h): 52%
reduction of cell survival/viability (CCRF-CEM cells; 72 h): 85%
CC50 (MDA-231R cells; MDA-231R (Dox-resistant), FIG. 10: after 72 h): 36 µM
LC50 in MDA-MB-231R cells, times higher than the naïve cells (MDA-231R cells; resistance induction): more than 50 times
Cell Viability (%) after 24 h [1]: 54 ± 2%
Cell Viability (%) after 72 h [1]: 13 ± 3%
reduction of cell survival ([1]; 24 h): 46%
reduction of cell survival/viability ([1]; 72 h): 87%
Cell Viability (%) after 24 h (SK-OV-3 cells; 5 μM): 73 ± 2%
Cell Viability (%) after 72 h (SK-OV-3 cells; 5 μM): 67 ± 3%
reduction of cell survival/viability (SK-OV-3 cells; 5 μM, 24 h): 27% and 30%
reduction of cell survival/viability (SK-OV-3 cells; 5 μM, 72 h): 33%
Cell Viability (%) after 24 h (SK-OV-3 cells; 10 μM): 71 ± 3%
Cell Viability (%) after 72 h (SK-OV-3 cells; 10 μM): 64 ± 1%
cytotoxicity (SK-OV-3 cells; Dox alone 5 and 10 μM): 27-36%
LC50 (MDA-MB-231 cells): 0.3 µg/mL (≈ 0.552 µM)
uptake in heart cells (confocal microscopy, words) (H9C2 cells): high uptake
